Data on 18 compounds can be found in patent US9012489B2, “Phenyl-3-aza-bicyclo[3.1.0]hex-3-yl-methanones and the use thereof as medicament” (Boehringer Ingelheim International GmbH, priority 2011, dated 2015).

In this test the target is T1, GlyT1 transporter (Homo sapiens, UniProt P48067).
T1 construct: endogenously expressing the GlyT1 transporter; host or cells: SK-N-MC human neuroblastoma cells
T1 sequence (P48067 1-706): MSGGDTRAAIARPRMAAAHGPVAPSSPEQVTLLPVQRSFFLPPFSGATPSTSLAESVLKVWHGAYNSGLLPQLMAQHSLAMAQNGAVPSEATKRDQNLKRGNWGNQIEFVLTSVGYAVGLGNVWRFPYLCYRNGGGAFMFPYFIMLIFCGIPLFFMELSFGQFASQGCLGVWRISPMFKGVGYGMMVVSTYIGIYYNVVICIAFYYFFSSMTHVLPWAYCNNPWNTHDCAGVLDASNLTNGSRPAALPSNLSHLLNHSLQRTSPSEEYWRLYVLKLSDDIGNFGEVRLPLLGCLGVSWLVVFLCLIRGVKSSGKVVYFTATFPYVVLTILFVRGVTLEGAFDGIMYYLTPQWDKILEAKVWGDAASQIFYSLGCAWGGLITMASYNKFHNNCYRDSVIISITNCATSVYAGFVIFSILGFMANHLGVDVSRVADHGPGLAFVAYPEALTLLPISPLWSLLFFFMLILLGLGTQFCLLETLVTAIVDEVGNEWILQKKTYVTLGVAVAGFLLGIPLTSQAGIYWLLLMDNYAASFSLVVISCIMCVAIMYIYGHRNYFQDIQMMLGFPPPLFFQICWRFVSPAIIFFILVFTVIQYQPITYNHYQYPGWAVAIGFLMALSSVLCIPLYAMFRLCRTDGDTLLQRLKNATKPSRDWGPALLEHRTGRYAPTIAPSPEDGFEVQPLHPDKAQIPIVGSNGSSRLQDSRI
The experiment in a line: GlyT1 assay: 3H-glycine uptake into SK-N-MC cells (Cytostar-T format). As to conditions: glycine uptake in human SK-N-MC cells endogenously expressing GlyT1; 500 nM glycine, 1% DMSO, signal recorded over 60 min. It counts as cell-based. An excerpt: Cells expressing either endogenously the GlyT1 transporter like JAR cells (human placental choriocarcinoma cells; e.g. WO 2008/002583) or SK-N-MC cells (human neuroblastoma cells; Depoortere et al., 2005. Neuropsychopharmacology 30:1963-1985) or primary neurons or cells which have been transfected with a plasmid encoding the cDNA of a functional GlyT1 transporter and stably or transiently express GlyT1 (e.g. WO 2006/08200) can be used to monitor glycine uptake in cells. Different protocols for determination of the glycine uptake into the cells described above can be applied in order to identify and rank compounds which interfere with glycine uptake in the selected cell.
Compounds outlined in the examples below were characterized using human SK-N-MC cells (ATCC number HTB-10) endogenously expressing the GlyT1 transporter which is responsible for the uptake of glycine into these cells and the uptake of glycine into these cells is monitored using the Cytostar-T assay format (GE Healthcare, RPNQ0162) which is based on the radioactive glycine taken up by the cells and brought into proximity with the scintillant contained within the base of the plate. The radioactive decay is converted to a light signal based on the integration of the scintillation matrix into the assay plate. The uptake is recorded as kinetic and the slope of the measured counts over time is used to calculate IC50.
In detail, SK-N-MC cells are seeded into 96-well Cytostar-T assay plates at a density of 200,000 cells/well and grown for 16-18 hours to confluence in growth medium as recommended by ATCC. Before starting the assay, cells are washed once with HBSS (Hank's buffered salt solution; Sigma, H8264) cont. 5 mM alanine (referred in here as HBSS/Ala) and afterwards the following reagents are added: • 1. 80 μl/well HBSS/Ala • 2. 20 μl/well of HBSS/Ala containing 6× the concentration of compound in 6% DMSO • 3. approx. 5-10 min incubation • 4. 20 μl/well 3 μM glycine (^3H-glycine (Perkin Elmer, NET004001MC, specific activity: 52 Ci/mmol; diluted 1:1 with unlabelled glycine) in HBSS/Ala.
In the final assay, glycine concentration is 500 nM (250 nM derived from the ^3H-glycine Perkin Elmer, 250 nM unlabelled glycine), DMSO concentration is 1%.
The assay plate is immediately after addition of the ^3H-glycine placed into a Micro-Beta Counter (Perkin Elmer) and the signal is recorded over 60 min.
To calculate uptake, the slope in the linear range of the kinetics is determined using GraphPadPrism and for the different slopes at the selected concentrations IC50 are calculated by curve fitting using the software GraphPadPrism.
Maximal glycine uptake in every experiment is determined by incubation of SK-N-MC cells with substrate but without inhibitor. Unspecific uptake of glycine by the cells is determined by incubating the cells with substrate and a reference GlyT1 inhibitor e.g. 10 μM RG-1678 (Pinard et al., 2010, J. Med. Chem. 53(12):4603-14).
Compounds are diluted from 10 mM stocks and in general, for IC50 determination 8 compound concentrations are used.
Compound `C[C@H](Oc1ccc(S(C)(=O)=O)cc1C(=O)N1CC2CC2(c2ncc(C(F)(F)F)o2)C1)C(F)(F)F` (mixture of isomers) [Example 131, [5-Methanesulfonyl-2-(2,2,2-trifluoro-1-methyl-ethoxy)-phenyl]-[1-(5-trifluoromethyl-oxazol-2-yl)-3-aza-bicyclo[3.1.0]hex-3-yl]-methanone] had a half-maximal inhibitory concentration (IC50) of 19 nM.
Take `COC1(c2nc(C34CC3CN(C(=O)c3cc(S(C)(=O)=O)ccc3O[C@H](C)C(F)(F)F)C4)no2)CC1` (single isomer, unassigned) [Example 120, [5-Methanesulfonyl-2-(2,2,2-trifluoro-1-methyl-ethoxy)-phenyl]-{1-[5-(1-methoxy-cyclopropyl)-[1,2,4]oxadiazol-3-yl]-3-aza-bicyclo[3.1.0]hex-3-yl}-methanone]: the IC50 was determined as 6 nM.
`C[C@@H](Oc1ccc(S(C)(=O)=O)cc1C(=O)N1CC2CC2(c2coc(C3CC3)n2)C1)C(F)(F)F` (single isomer, unassigned) [Example 83] yielded an IC50 of 3 nM.
`C[C@@H](Oc1ccc(S(C)(=O)=O)cc1C(=O)N1CC2CC2(c2noc(C3CC3(F)F)n2)C1)C(F)(F)F` (mixture of isomers) [Example 64, {1-[5-(2,2-Difluoro-cyclopropyl)-[1,2,4]oxadiazol-3-yl]-3-aza-bicyclo[3.1.0]hex-3-yl}-[5-methanesulfonyl-2-(2,2,2-trifluoro-1-methyl-ethoxy)-phenyl]-methanone] returned an IC50 of 4 nM.
In the case of `C[C@H](Oc1ccc(S(C)(=O)=O)cc1C(=O)N1CC2CC2(c2cncc(C(F)(F)F)c2)C1)C(F)(F)F` (mixture of isomers) [Example 53, [5-Methanesulfonyl-2-(2,2,2-trifluoro-1-methyl-ethoxy)-phenyl]-[1-(5-trifluoromethyl-pyridin-3-yl)-3-aza-bicyclo[3.1.0]hex-3-yl]-methanone], the IC50 is 70 nM.
`CS(=O)(=O)c1ccc(O[C@@H]2CCOC2)c(C(=O)N2CC3CC3(c3noc(C(F)(F)F)n3)C2)c1` (single isomer, unassigned) [Example 140, [5-Methanesulfonyl-2-(tetrahydro-furan-3-yloxy)-phenyl]-[1-(5-trifluoromethyl-[1,2,4]oxadiazol-3-yl)-3-aza-bicyclo[3.1.0]hex-3-yl]-methanone] returned an IC50 of 3000 nM.
On to `C[C@H](Oc1ccc(S(C)(=O)=O)cc1C(=O)N1CC2CC2(c2ncc(C(F)(F)F)o2)C1)C(F)(F)F` (single isomer, unassigned) [Example 133, [5-Methanesulfonyl-2-(2,2,2-trifluoro-1-methyl-ethoxy)-phenyl]-[1-(5-trifluoromethyl-oxazol-2-yl)-3-aza-bicyclo[3.1.0]hex-3-yl]-methanone], for which the midpoint of inhibition, the IC50, lay at 403 nM.
Then `C[C@H](Oc1ccc(S(C)(=O)=O)cc1C(=O)N1CC2CC2(c2nnc(C(F)(F)F)o2)C1)C(F)(F)F` (mixture of isomers) [Example 125, [5-Methanesulfonyl-2-(2,2,2-trifluoro-1-methyl-ethoxy)-phenyl]-[1-(5-trifluoromethyl-[1,3,4]oxadiazol-2-yl)-3-aza-bicyclo[3.1.0]hex-3-yl]-methanone], with 31 nM.
Then `Cc1coc(C23CC2CN(C(=O)c2cc(S(C)(=O)=O)ccc2O[C@@H](C)C(F)(F)F)C3)n1` (mixture of isomers) [Example 33, [5-Methanesulfonyl-2-(2,2,2-trifluoro-1-methyl-ethoxy)-phenyl]-[1-(4-methyl-oxazol-2-yl)-3-aza-bicyclo[3.1.0]hex-3-yl]-methanone], with 190 nM; and `C[C@@H](Oc1ccc(S(C)(=O)=O)cc1C(=O)N1CC2CC2(c2noc(C(F)(F)F)n2)C1)C(F)(F)F` (mixture of isomers) [Example 58, [5-Methanesulfonyl-2-(2,2,2-trifluoro-1-methyl-ethoxy)-phenyl]-[1-(5-trifluoromethyl-[1,2,4]oxadiazol-3-yl)-3-aza-bicyclo[3.1.0]hex-3-yl]-methanone], with 17 nM.
Then `CC(C)Oc1ccc(S(C)(=O)=O)cc1C(=O)N1CC2CC2(c2nc(C(F)(F)F)co2)C1` (racemic) [Example 110, (2-Isopropoxy-5-methanesulfonyl-phenyl)-[1-(4-trifluoromethyl-oxazol-2-yl)-3-aza-bicyclo[3.1.0]hex-3-yl]-methanone], with 1130 nM.
The compound `C[C@H](Oc1ccc(S(C)(=O)=O)cc1C(=O)N1CC2CC2(c2nnc(C(F)(F)F)o2)C1)C(F)(F)F` (single isomer, unassigned) [Example 127, [5-Methanesulfonyl-2-(2,2,2-trifluoro-1-methyl-ethoxy)-phenyl]-[1-(5-trifluoromethyl-[1,3,4]oxadiazol-2-yl)-3-aza-bicyclo[3.1.0]hex-3-yl]-methanone] displayed an IC50 of 2660 nM.
As to `C[C@H](Oc1ccc(S(C)(=O)=O)cc1C(=O)N1CC2(C)CC2(c2noc(C(F)(F)F)n2)C1)C(F)(F)F` (single isomer, unassigned) [Example 158, [5-Methanesulfonyl-2-(2,2,2-trifluoro-1-methyl-ethoxy)-phenyl]-[1-methyl-5-(5-trifluoromethyl-[1,2,4]oxadiazol-3-yl)-3-aza-bicyclo[3.1.0]hex-3-yl]-methanone], the midpoint of inhibition, the IC50, lay at 85 nM.
Then `CCS(=O)(=O)c1ccc(O[C@H](C)C(F)(F)F)c(C(=O)N2CC3CC3(c3nccc(C(F)(F)F)n3)C2)c1` (single isomer, unassigned) [Example 78, [5-Ethanesulfonyl-2-(2,2,2-trifluoro-1-methyl-ethoxy)-phenyl]-[1-(4-trifluoromethyl-pyrimidin-2-yl)-3-aza-bicyclo[3.1.0]hex-3-yl]-methanone], with 7 nM; and `Cc1c(C23CC2CN(C(=O)c2cc(S(C)(=O)=O)ccc2O[C@@H](C)C(F)(F)F)C3)noc1C(F)(F)F` (mixture of isomers) [Example 163], with 16 nM; and `C[C@H](Oc1ccc(S(C)(=O)=O)cc1C(=O)N1CC2CC2(c2csc(C(F)(F)F)n2)C1)C(F)(F)F` (single isomer, unassigned) [Example 27, [5-Methanesulfonyl-2-(2,2,2-trifluoro-1-methyl-ethoxy)-phenyl]-[1-(2-trifluoromethyl-thiazol-4-yl)-3-aza-bicyclo[3.1.0]hex-3-yl]-methanone], with 5 nM.
For `CC(C)COc1ccc(S(C)(=O)=O)cc1C(=O)N1CC2CC2(c2noc(C(F)(F)F)n2)C1` (racemic) [Example 95, (2-Isobutoxy-5-methxnesulfonyl-phenyl)-[1-(5-trifluoromethyl-[1,2,4]oxadiazol-3-yl)-3-aza-bicyclo[3.10]hex-3-yl]-methanone] the value was 131 nM.
Then `C[C@@H](Oc1ccc(S(C)(=O)=O)cc1C(=O)N1CC2CC2(c2nnc(C3(C(F)(F)F)CC3)o2)C1)C(F)(F)F` (single isomer, unassigned) [Example 150, [5-Methanesulfonyl-2-(2,2,2-trifluoro-1-methyl-ethoxy)-phenyl]-{1-[5-(1-trifluoromethyl-cyclopropyl)-[1,3,4]oxadiazol-2-yl]-3-aza-bicyclo[3.1.0]hex-3-yl}-methanone], with 232 nM.
